Key:
Type in all cases: in vivo
[1] = system: Alopecurus myosuroides (ALOMY); test: Pre-emergence herbicidal glasshouse test on Alopecurus myosuroides; conditions: pre-emergence; 1000 g/h; evaluated after 13 days
In short: (§1)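 Plants sprayed 1 day (pre-emergence) or 8 days (post-emergence) after sowing with compound at 1000 g/h in acetone/water 50:50 with 0.5% Tween 20; glasshouse 24/16° C, 14 h light, 65% humidity. Damage assessed after 13 days, scored 1–5 (5 = 80-100%, 1 = 0-19%).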

[2] = system: Setaria faberi (SETFA); test: Pre-emergence herbicidal glasshouse test on Setaria faberi; conditions: pre-emergence; 1000 g/h; evaluated after 13 days
In short: as §1

[3] = system: Echinochloa crus-galli (ECHCG); test: Pre-emergence herbicidal glasshouse test on Echinochloa crus-galli; conditions: pre-emergence; 1000 g/h; evaluated after 13 days
In short: as §1

[4] = system: Solanum nigrum (SOLNI); test: Pre-emergence herbicidal glasshouse test on Solanum nigrum; conditions: pre-emergence; 1000 g/h; evaluated after 13 days
In short: as §1

[5] = system: Amaranthus retoflexus (AMARE); test: Pre-emergence herbicidal glasshouse test on Amaranthus retoflexus; conditions: pre-emergence; 1000 g/h; evaluated after 13 days
In short: as §1

[6] = system: Ipomoea hederacea (IPOHE); test: Pre-emergence herbicidal glasshouse test on Ipomoea hederacea; conditions: pre-emergence; 1000 g/h; evaluated after 13 days
In short: as §1

[7] = system: Alopecurus myosuroides (ALOMY); test: Post-emergence herbicidal glasshouse test on Alopecurus myosuroides; conditions: post-emergence; 1000 g/h; evaluated after 13 days
In short: as §1

[8] = system: Setaria faberi (SETFA); test: Post-emergence herbicidal glasshouse test on Setaria faberi; conditions: post-emergence; 1000 g/h; evaluated after 13 days
In short: as §1

[9] = system: Echinochloa crus-galli (ECHCG); test: Post-emergence herbicidal glasshouse test on Echinochloa crus-galli; conditions: post-emergence; 1000 g/h; evaluated after 13 days
In short: as §1

[10] = system: Solanum nigrum (SOLNI); test: Post-emergence herbicidal glasshouse test on Solanum nigrum; conditions: post-emergence; 1000 g/h; evaluated after 13 days
In short: as §1

[11] = system: Amaranthus retoflexus (AMARE); test: Post-emergence herbicidal glasshouse test on Amaranthus retoflexus; conditions: post-emergence; 1000 g/h; evaluated after 13 days
In short: as §1

[12] = system: Ipomoea hederacea (IPOHE); test: Post-emergence herbicidal glasshouse test on Ipomoea hederacea; conditions: post-emergence; 1000 g/h; evaluated after 13 days
In short: as §1

Cc1c(-c2c(C3CC3)nn(C)c(=O)c2O)ccc(S(C)(=O)=O)c1C1=NOCC1 [Compound 2.019]
2 (2=20-39% damage): PRE Application SETFA herbicidal damage (five point scale) [2]
4 (4=60-79% damage): PRE Application ALOMY herbicidal damage (five point scale) [1] | PRE Application IPOHE herbicidal damage (five point scale) [6] | POST Application SETFA herbicidal damage (five point scale) [8] | POST Application ECHCG herbicidal damage (five point scale) [9]
5 (5=80-100% damage): PRE Application ECHCG herbicidal damage (five point scale) [3] | PRE Application SOLNI herbicidal damage (five point scale) [4] | PRE Application AMARE herbicidal damage (five point scale) [5] | POST Application ALOMY herbicidal damage (five point scale) [7] | POST Application SOLNI herbicidal damage (five point scale) [10] | POST Application AMARE herbicidal damage (five point scale) [11] | POST Application IPOHE herbicidal damage (five point scale) [12]

C=Cc1nn(C)c(=O)c(O)c1-c1ccc(S(C)(=O)=O)c(C2=NOCC2)c1C [Compound 2.020]
4 (4=60-79% damage): PRE Application ALOMY herbicidal damage (five point scale) [1] | POST Application ALOMY herbicidal damage (five point scale) [7] | POST Application SETFA herbicidal damage (five point scale) [8] | POST Application ECHCG herbicidal damage (five point scale) [9]
1 (1=0-19% damage): PRE Application SETFA herbicidal damage (five point scale) [2] | PRE Application IPOHE herbicidal damage (five point scale) [6]
5 (5=80-100% damage): PRE Application ECHCG herbicidal damage (five point scale) [3] | PRE Application SOLNI herbicidal damage (five point scale) [4] | PRE Application AMARE herbicidal damage (five point scale) [5] | POST Application SOLNI herbicidal damage (five point scale) [10] | POST Application AMARE herbicidal damage (five point scale) [11] | POST Application IPOHE herbicidal damage (five point scale) [12]

CCS(=O)(=O)c1nn(C)c(=O)c(O)c1-c1ccc(S(C)(=O)=O)c(C2=NOCC2)c1C [Compound 2.021]
2 (2=20-39% damage): POST Application SETFA herbicidal damage (five point scale) [8]
1 (1=0-19% damage): PRE Application ALOMY herbicidal damage (five point scale) [1] | PRE Application SETFA herbicidal damage (five point scale) [2] | PRE Application ECHCG herbicidal damage (five point scale) [3] | PRE Application SOLNI herbicidal damage (five point scale) [4] | PRE Application IPOHE herbicidal damage (five point scale) [6] | POST Application ALOMY herbicidal damage (five point scale) [7]
5 (5=80-100% damage): PRE Application AMARE herbicidal damage (five point scale) [5] | POST Application ECHCG herbicidal damage (five point scale) [9] | POST Application SOLNI herbicidal damage (five point scale) [10] | POST Application AMARE herbicidal damage (five point scale) [11] | POST Application IPOHE herbicidal damage (five point scale) [12]

Cn1nc([N+](=O)[O-])c(-c2ccc(C(F)(F)F)cc2S(C)(=O)=O)c(O)c1=O [Compound 2.022]
5 (5=80-100% damage): PRE Application ALOMY herbicidal damage (five point scale) [1] | PRE Application ECHCG herbicidal damage (five point scale) [3] | PRE Application SOLNI herbicidal damage (five point scale) [4] | PRE Application AMARE herbicidal damage (five point scale) [5] | PRE Application IPOHE herbicidal damage (five point scale) [6] | POST Application ALOMY herbicidal damage (five point scale) [7] | POST Application SETFA herbicidal damage (five point scale) [8] | POST Application ECHCG herbicidal damage (five point scale) [9] | POST Application SOLNI herbicidal damage (five point scale) [10] | POST Application AMARE herbicidal damage (five point scale) [11] | POST Application IPOHE herbicidal damage (five point scale) [12]
4 (4=60-79% damage): PRE Application SETFA herbicidal damage (five point scale) [2]

C=C(C)c1nn(C)c(=O)c(O)c1-c1ccc(S(C)(=O)=O)c(C2=NOCC2)c1C [Compound 2.023]
1 (1=0-19% damage): PRE Application SETFA herbicidal damage (five point scale) [2]
5 (5=80-100% damage): PRE Application ALOMY herbicidal damage (five point scale) [1] | PRE Application ECHCG herbicidal damage (five point scale) [3] | PRE Application SOLNI herbicidal damage (five point scale) [4] | PRE Application AMARE herbicidal damage (five point scale) [5] | POST Application ALOMY herbicidal damage (five point scale) [7] | POST Application SETFA herbicidal damage (five point scale) [8] | POST Application ECHCG herbicidal damage (five point scale) [9] | POST Application SOLNI herbicidal damage (five point scale) [10] | POST Application AMARE herbicidal damage (five point scale) [11] | POST Application IPOHE herbicidal damage (five point scale) [12]
4 (4=60-79% damage): PRE Application IPOHE herbicidal damage (five point scale) [6]

Cc1c(-c2c(C(C)C)nn(C)c(=O)c2O)ccc(S(C)(=O)=O)c1C1=NOCC1 [Compound 2.024]
5 (5=80-100% damage): PRE Application ALOMY herbicidal damage (five point scale) [1] | PRE Application ECHCG herbicidal damage (five point scale) [3] | PRE Application AMARE herbicidal damage (five point scale) [5] | POST Application ALOMY herbicidal damage (five point scale) [7] | POST Application SETFA herbicidal damage (five point scale) [8] | POST Application ECHCG herbicidal damage (five point scale) [9] | POST Application SOLNI herbicidal damage (five point scale) [10] | POST Application AMARE herbicidal damage (five point scale) [11] | POST Application IPOHE herbicidal damage (five point scale) [12]
4 (4=60-79% damage): PRE Application SETFA herbicidal damage (five point scale) [2] | PRE Application SOLNI herbicidal damage (five point scale) [4] | PRE Application IPOHE herbicidal damage (five point scale) [6]

Cc1c(-c2c(C#N)nn(C)c(=O)c2O)ccc(S(C)(=O)=O)c1C1=NOCC1 [Compound 2.025]
4 (4=60-79% damage): POST Application ECHCG herbicidal damage (five point scale) [9] | POST Application IPOHE herbicidal damage (five point scale) [12]
2 (2=20-39% damage): POST Application ALOMY herbicidal damage (five point scale) [7]
1 (1=0-19% damage): PRE Application ALOMY herbicidal damage (five point scale) [1] | PRE Application SETFA herbicidal damage (five point scale) [2] | PRE Application ECHCG herbicidal damage (five point scale) [3] | POST Application SETFA herbicidal damage (five point scale) [8]
5 (5=80-100% damage): PRE Application SOLNI herbicidal damage (five point scale) [4] | PRE Application AMARE herbicidal damage (five point scale) [5] | PRE Application IPOHE herbicidal damage (five point scale) [6] | POST Application SOLNI herbicidal damage (five point scale) [10] | POST Application AMARE herbicidal damage (five point scale) [11]

C#Cc1ccc(-c2cnn(C)c(=O)c2O)c(S(C)(=O)=O)c1 [Compound 2.028]
5 (5=80-100% damage): PRE Application ALOMY herbicidal damage (five point scale) [1] | PRE Application ECHCG herbicidal damage (five point scale) [3] | PRE Application SOLNI herbicidal damage (five point scale) [4] | PRE Application AMARE herbicidal damage (five point scale) [5] | POST Application ALOMY herbicidal damage (five point scale) [7] | POST Application SETFA herbicidal damage (five point scale) [8] | POST Application ECHCG herbicidal damage (five point scale) [9] | POST Application SOLNI herbicidal damage (five point scale) [10] | POST Application AMARE herbicidal damage (five point scale) [11] | POST Application IPOHE herbicidal damage (five point scale) [12]
4 (4=60-79% damage): PRE Application SETFA herbicidal damage (five point scale) [2] | PRE Application IPOHE herbicidal damage (five point scale) [6]

CC#Cc1ccc(-c2cnn(C)c(=O)c2O)c(S(C)(=O)=O)c1 [Compound 2.029]
5 (5=80-100% damage): PRE Application ALOMY herbicidal damage (five point scale) [1] | PRE Application ECHCG herbicidal damage (five point scale) [3] | PRE Application SOLNI herbicidal damage (five point scale) [4] | PRE Application AMARE herbicidal damage (five point scale) [5] | POST Application ALOMY herbicidal damage (five point scale) [7] | POST Application SETFA herbicidal damage (five point scale) [8] | POST Application ECHCG herbicidal damage (five point scale) [9] | POST Application SOLNI herbicidal damage (five point scale) [10] | POST Application AMARE herbicidal damage (five point scale) [11] | POST Application IPOHE herbicidal damage (five point scale) [12]
3 (3=40-59% damage): PRE Application SETFA herbicidal damage (five point scale) [2]
1 (1=0-19% damage): PRE Application IPOHE herbicidal damage (five point scale) [6]

From patent US9693556B2, “Herbicidal pyridazinone derivatives” (SYNGENTA LIMITED, priority 2011, dated 2017)
